Laboratory results taken from patent US20220000971A1, “METHODS AND COMPOUNDS FOR TARGETING SORTILIN RECEPTORS AND INHIBITING VASCULOGENIC MIMICRY” (TRANSFERT PLUS, S.E.C., priority 2018, published 2022).
Entries after “also recorded” stand apart in the source; their conditions may differ. Where a SMILES comes first, the peptide text is derived from it. Where no end group is shown, it is not given here. [ ]: non-standard residue; d: D form. The star is where a group is joined. X2 = COc1cccc2c1C(=O)c1c(O)c3c(c(O)c1C2=O)C[C@@](O)(C(=O)COC(=O)CC(C)(C)CC(=O)*)C[C@@H]3O[C@H]1C[C@H](N)[C@H](O)[C@H](C)O1; Nle = CCCC[C@H](N)C(=O)O

Legend:
Sortilin receptor [1] = target: T1, Sortilin receptor (Homo sapiens, UniProt Q99523); assay: Cell surface binding assay with anti-Sortilin-Alexa488; conditions: antibody 1 μg/ml, 30 minutes; ES-2 cells; competitor present
T1 construct: endogenous in cells; host or cells: ES-2 human ovarian cancer cells
T1 sequence (Q99523 78-831): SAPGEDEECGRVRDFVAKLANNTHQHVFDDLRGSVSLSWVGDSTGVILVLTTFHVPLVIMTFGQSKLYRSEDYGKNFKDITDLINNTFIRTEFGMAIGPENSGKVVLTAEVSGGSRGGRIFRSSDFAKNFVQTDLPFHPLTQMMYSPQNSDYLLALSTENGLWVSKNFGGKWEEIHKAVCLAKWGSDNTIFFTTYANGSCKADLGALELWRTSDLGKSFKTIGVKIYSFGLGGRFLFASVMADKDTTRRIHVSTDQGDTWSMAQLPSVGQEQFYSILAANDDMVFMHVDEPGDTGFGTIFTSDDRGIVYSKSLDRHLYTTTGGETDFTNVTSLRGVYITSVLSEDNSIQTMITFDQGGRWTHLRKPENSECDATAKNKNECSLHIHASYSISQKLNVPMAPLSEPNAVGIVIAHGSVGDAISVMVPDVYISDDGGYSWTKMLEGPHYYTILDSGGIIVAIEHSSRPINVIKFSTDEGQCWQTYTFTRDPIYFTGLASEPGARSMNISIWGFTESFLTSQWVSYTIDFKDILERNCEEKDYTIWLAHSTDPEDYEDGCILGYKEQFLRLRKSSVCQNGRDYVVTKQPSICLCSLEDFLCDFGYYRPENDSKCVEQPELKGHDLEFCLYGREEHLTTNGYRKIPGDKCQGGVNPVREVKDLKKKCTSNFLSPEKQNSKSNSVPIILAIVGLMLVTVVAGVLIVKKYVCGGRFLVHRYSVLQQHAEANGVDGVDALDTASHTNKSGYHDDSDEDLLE
Description: Labeling of anti-Sortilin antibody was performed with the Alexa Fluor 488 protein labeling kit from Invitrogen according to manufacturer's instructions.

[2] = system: ES-2 ovarian cancer cells; assay: In vitro vasculogenic mimicry, Matrigel tube formation assay (ES-2); assay type: cell-based, human; conditions: for effect on vasculogenic mimicry inhibition caused by KBB106: competitor added to KBB106; for inhibition of 3D-tubular structures (vasculogenic mimicry): ES-2 seeded on Matrigel, increasing concentrations
[3] = system: SK-Hep-1 hepatocellular carcinoma cells; conditions: Curcumin 3-30 μM, dose-dependent; cited from earlier work
MDA-MB-231 cells [4] = assay: Cell death / apoptosis (Annexin V-FITC/PI); assay type: cell-based; conditions: SORT1 ligand competition
Description: MDA-MB-231 cells treated for 5 hours with control (vehicle) or with increasing concentrations of Docetaxel or DoceKA. Cells were then harvested and the rate of apoptosis was determined following staining with Annexin V-FITC and propidium iodide (PI). Cells were analyzed by flow cytometry.

[5] = system: ES-2 ovarian cancer cell line; assay: Intracellular delivery (uptake) of DoxKA, ES-2; assay type: cell-based, human; conditions: Sortilin silencing or ligand competition
Description: (§1) As a proof-of-concept, Doxorubicin was conjugated to a Sortilin binding peptide (KA-peptide). In vitro, intracellular delivery of the Doxorubicin-KA-peptide conjugate (DoxKA) KBB-106 represented by formula Acetyl-GVRAK(doxorubicin)AGVRN(Nle)FK(doxorubicin)SESY (Formula (XXVIII)) was assessed in ES-2 and SKOV-3 ovarian cancer cell line models using flow cytometry and fluorescent microscopy. Sortilin gene silencing was performed with specific siRNA. DoxKA efficacy and safety were evaluated in vivo using ES-2 (CD1 nude mice) and SKOV-3 (athymic mice) subcutaneous xenograft models.

[6] = system: SKOV-3 ovarian cancer cell line; assay: Intracellular delivery (uptake) of DoxKA, SKOV-3; assay type: cell-based; conditions: Sortilin silencing or ligand competition
Description: as §1

[7] = target: T2, P-glycoprotein (P-gp) efflux pump (Homo sapiens, UniProt P08183); assay: Uptake in MDCK-MDR1 cells overexpressing P-gp; assay type: in vitro ADME; conditions: with P-gp inhibitor Cyclosporin A
T2 construct: expressed in transfected cells; host or cells: MDCK-MDR1 cells
T2 sequence (P08183 whole entry): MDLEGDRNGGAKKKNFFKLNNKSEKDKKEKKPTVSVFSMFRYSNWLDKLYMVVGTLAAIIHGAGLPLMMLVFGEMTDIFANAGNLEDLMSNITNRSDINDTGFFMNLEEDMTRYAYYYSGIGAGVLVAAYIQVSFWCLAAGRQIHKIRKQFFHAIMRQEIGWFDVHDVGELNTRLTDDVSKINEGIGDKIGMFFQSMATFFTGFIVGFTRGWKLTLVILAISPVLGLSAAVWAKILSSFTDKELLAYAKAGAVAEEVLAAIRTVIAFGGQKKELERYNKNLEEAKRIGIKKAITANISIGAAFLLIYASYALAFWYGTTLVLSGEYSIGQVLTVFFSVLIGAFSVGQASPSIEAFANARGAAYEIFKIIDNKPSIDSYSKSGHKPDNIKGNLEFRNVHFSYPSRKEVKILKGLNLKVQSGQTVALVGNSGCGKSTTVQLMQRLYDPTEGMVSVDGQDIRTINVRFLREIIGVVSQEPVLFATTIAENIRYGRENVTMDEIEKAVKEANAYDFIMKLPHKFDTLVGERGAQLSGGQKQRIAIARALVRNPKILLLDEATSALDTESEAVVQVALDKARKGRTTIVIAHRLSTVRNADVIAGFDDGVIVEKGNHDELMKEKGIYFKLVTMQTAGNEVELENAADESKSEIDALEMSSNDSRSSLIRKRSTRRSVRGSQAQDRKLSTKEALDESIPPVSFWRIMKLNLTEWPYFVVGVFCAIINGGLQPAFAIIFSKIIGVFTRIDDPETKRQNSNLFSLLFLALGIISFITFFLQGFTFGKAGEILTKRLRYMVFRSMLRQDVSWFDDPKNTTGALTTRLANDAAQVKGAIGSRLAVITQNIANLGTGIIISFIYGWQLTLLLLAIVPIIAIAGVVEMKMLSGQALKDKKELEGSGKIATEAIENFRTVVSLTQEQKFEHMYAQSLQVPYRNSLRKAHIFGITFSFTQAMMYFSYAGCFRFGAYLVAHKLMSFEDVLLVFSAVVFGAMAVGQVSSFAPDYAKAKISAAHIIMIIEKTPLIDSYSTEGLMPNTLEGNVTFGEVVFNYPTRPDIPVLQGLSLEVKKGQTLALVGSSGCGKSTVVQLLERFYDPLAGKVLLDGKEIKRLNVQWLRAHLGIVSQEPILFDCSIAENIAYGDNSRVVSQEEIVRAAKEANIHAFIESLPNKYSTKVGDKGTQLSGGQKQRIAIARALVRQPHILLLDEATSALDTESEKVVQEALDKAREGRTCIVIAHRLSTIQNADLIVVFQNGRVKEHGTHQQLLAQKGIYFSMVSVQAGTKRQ

[8] = system: ES-2 ovarian cancer cells; assay: Real-time cell migration, xCELLigence (ES-2); assay type: cell-based, human
Description: (§2) In vitro vasculogenic mimicry of cancer cells was assessed using a Matrigel tube formation assay. In brief, each well of a 96-well plate was pre-coated with Matrigel. ES-2 ovarian cancer or MDA-MB-231 TNBC cell suspensions were seeded on top of Matrigel. 3D-tubular structures were analyzed and quantified using Wimasis Analysis software. Real-time cell migration was evaluated using the ×CELLigence system. Sortilin gene silencing was performed with specific siRNA. Effects of Doxorubicin-KA-peptide conjugate (DoxKA) KBA-106 represented by formula Acetyl-GVRAK(doxorubicin)AGVRN(Nle)FK(doxorubicin)SESY (Formula (XXVIII)) and Docetaxel-KA-peptide conjugate (DoceKA) represented by formula Acetyl-GVRAK(docetaxel)AGVRN(Nle)FK(docetaxel)SESY (Formula (XXIII)) targeting Sortilin on vasculogenic mimicry and cell migration were determined.

MDA-MB-231 cells [9] = assay: Real-time cell migration, xCELLigence (MDA-MB-231); assay type: cell-based
Description: as §2
MDA-MB-231 cells were used as a TNBC cell model for in vitro and in vivo xenograft (CD1 nude mice) assays. Cell migration was assessed using the ×CELLigence real-time system, whereas MTT assay was used for cell proliferation analysis. Apoptosis biomarkers expression was assessed by immunoblotting.

[10] = system: human ovarian tumor xenografts; assay: DoxKA efficacy and safety in ES-2 and SKOV-3 subcutaneous xenograft models; assay type: in vivo, mice
Description: as §1

Sortilin receptor [11] = target: T3, Sortilin receptor (human, UniProt Q99523 78-831); assay: inferred from the vasculogenic mimicry assay of ES-2 cells, excess KBP106 against KBB106
T3 construct: whole, on cells; also called SORT1
T3 sequence (looked up): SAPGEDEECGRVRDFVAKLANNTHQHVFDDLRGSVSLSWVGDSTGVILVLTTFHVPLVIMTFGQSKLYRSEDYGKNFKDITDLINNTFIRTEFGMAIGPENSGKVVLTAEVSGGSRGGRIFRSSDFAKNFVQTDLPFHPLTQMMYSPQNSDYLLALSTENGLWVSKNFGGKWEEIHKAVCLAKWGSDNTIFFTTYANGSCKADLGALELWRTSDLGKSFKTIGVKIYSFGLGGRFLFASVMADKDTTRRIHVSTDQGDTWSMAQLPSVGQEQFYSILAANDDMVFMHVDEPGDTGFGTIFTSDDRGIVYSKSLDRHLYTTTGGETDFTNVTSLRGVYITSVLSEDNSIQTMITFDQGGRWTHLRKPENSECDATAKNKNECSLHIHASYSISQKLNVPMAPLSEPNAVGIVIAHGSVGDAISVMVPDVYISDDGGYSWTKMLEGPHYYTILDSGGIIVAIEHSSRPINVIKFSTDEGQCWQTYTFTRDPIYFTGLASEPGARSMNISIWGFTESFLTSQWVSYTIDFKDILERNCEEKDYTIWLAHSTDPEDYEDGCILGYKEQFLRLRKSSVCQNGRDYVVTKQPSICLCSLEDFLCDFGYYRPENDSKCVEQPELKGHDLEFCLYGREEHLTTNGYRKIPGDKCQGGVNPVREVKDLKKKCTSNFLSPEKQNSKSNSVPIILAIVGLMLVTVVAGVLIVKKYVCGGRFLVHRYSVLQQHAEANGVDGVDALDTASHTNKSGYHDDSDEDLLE

In the case of “Acetyl-GVRAKAGVRN(Nle)FKSESY (Ac-GVRAKAGVRN[Nle]FKSESY) [KBP106]”, the “effect on binding of anti-Sortilin-Alexa488 at the cell surface” value (shortened to “effect on binding”) (Sortilin receptor [1]) is reported as “strongly reduced the binding”, the “effect on vasculogenic mimicry inhibition caused by KBB106” value ([2]; ES-2) is reported as “prevents vascukogenic mimicry inhibition by KBB106” and the “effect of peptide alone on vasculogenic mimicry” value ([2]; up to 50 μM, ES-2, 24 hours) is reported as “no significant effect”.

In the case of `COc1cc(/C=C/C(=O)CC(=O)/C=C/c2ccc(O)c(OC)c2)ccc1O` [Curcumin, diferuloylmethane], the “inhibition of tube formation” value [3] is given as 18-92%.

With “Acetyl-YKSLRRKAPRWDAPLRDPALRQLL (Ac-YKSLRRKAPRWDAPLRDPALRQLL) [KBP201]” the “effect on binding” value (Sortilin receptor [1]) was “strongly reduced the binding”.

In the case of “progranulin: Sortilin ligand [reference compound]”, the “effect on binding” value (Sortilin receptor [1]) is reported as “inhibited”, the “effect on apoptotic and anti-migratory effects of DoceKA” value (MDA-MB-231 cells [4]) is reported as “reversed” and the “effect of Sortilin ligand alone on vasculogenic mimicry” value ([2]; ES-2, 12 hours) is reported as “do not effect vasculogenic mimicry”. The “effect on vasculogenic mimicry inhibition caused by KBB106” value ([2]; ES-2) was “reverses vasculogenic mimicry inhibition”.

For `CCCC[C@H](NC(=O)[C@H](CC(N)=O)NC(=O)[C@H](CCCNC(=N)N)NC(=O)[C@@H](NC(=O)CNC(=O)[C@H](C)NC(=O)[C@H](CCCCNC(=O)CC(C)(C)CC(=O)OCC(=O)[C@]1(O)Cc2c(O)c3c(c(O)c2[C@@H](O[C@H]2C[C@H](N)[C@H](O)[C@H](C)O2)C1)C(=O)c1c(OC)cccc1C3=O)NC(=O)[C@H](C)NC(=O)[C@H](CCCNC(=N)N)NC(=O)[C@@H](NC(=O)CNC(C)=O)C(C)C)C(C)C)C(=O)N[C@@H](Cc1ccccc1)C(=O)N[C@@H](CCCCNC(=O)CC(C)(C)CC(=O)OCC(=O)[C@]1(O)Cc2c(O)c3c(c(O)c2[C@@H](O[C@H]2C[C@H](N)[C@H](O)[C@H](C)O2)C1)C(=O)c1c(OC)cccc1C3=O)C(=O)N[C@@H](CO)C(=O)N[C@@H](CCC(=O)O)C(=O)N[C@@H](CO)C(=O)N[C@@H](Cc1ccc(O)cc1)C(=O)O` [DoxKA, Acetyl-GVRAK(doxorubicin)AGVRN(Nle)FK(doxorubicin)SESY] (Ac-GVRAK(X2)AGVRN[Nle]FK(X2)SESY-OH), the uptake [5] was “reduced when Sortilin expression was specifically silenced or upon competition with the Sortilin ligands Neurotensin and Progranulin”, the uptake [6] was “reduced when Sortilin expression was specifically silenced or upon competition with the Sortilin ligands Neurotensin and Progranulin” and the “uptake in P-gp overexpressing cells” value [7] was “unaffected by the P-gp inhibitor Cyclosporin A”. The cell migration [8] was “inhibited”, the cell migration (MDA-MB-231 cells [9]) was “inhibited” and the “inhibition of tumor xenografts growth compared to unconjugated Doxorubicin” value ([10]; equivalent dose) was “more potent inhibition”. For the same molecule, the “tolerability compared to unconjugated Doxorubicin” value ([10]; equivalent dose) was “better tolerated (absence of leukopenia and neutropenia)”, the “accumulation in healthy tissues compared to Doxorubicin” value ([10]; in vivo, heart and ovary) was “decreased accumulation in healthy tissues such as heart and ovary” and the “concentration at which total number of loops and total tube length are inhibited” value ([2]; ES-2 on Matrigel) was “inhibited at low nM concentrations”. For the same molecule, the “vasculogenic mimicry inhibition compared to unconjugated drug” value ([2]; ES-2 on Matrigel, 12 hrs, equivalent concentration of free drug (Docetaxel 600 pM)) was “stronger inhibition of vasculogenic mimicry than unconjugated free drugs”, the “inhibition of 3D-tubular structures (vasculogenic mimicry)” value (shortened to “inhibition … (vasculogenic mimicry)”) [2] was “strongly inhibited; also recorded: inhibited” and the “inhibition … (vasculogenic mimicry)” value ([2]; listed as KBB106) was “vascukogenic mimicry inhibition”. For the same molecule, the “IC50 values for vasculogenic mimicry inhibition” value ([2]; Example 2, ovarian cancer and TNBC cells) was “low nM to pM”.

In the case of “Acetyl-GVRAKAGVRN(Nle)FKSESYC(aldoxorubicin) [AldoxKA]”, the “inhibition … (vasculogenic mimicry)” value [2] is reported as “inhibited”.

B1: KBP-106: Acetyl-GVRAKAGVRN(Nle)FKSESY (peptide)
peptide: Ac-GVRAKAGVRN[Nle]FKSESY
notes: also called Katana peptide; KA-peptide
B1: binds (Sortilin receptor [11]).
